Results published in patent US10463644B2, “Uses of sesquiterpene lactone compounds and their derivatives in drugs preparation” (ACCENDATECH, priority 2013, dated 2019).
Where two headings read alike, the source gives them in different places.

What was measured:
[1] = tested on: TNF-α secreted by synoviocyte; assay: Content of TNF-α in culture supernatant of synoviocyte of RA model rats given test compound; assay type: in vivo; details: rat RA model, dose 30 mg/kg.2d; normal control 0.38 ± 0.027, NaCl 0.74 ± 0.098
Summary of the method: (§1)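 Read-out: TNF-α, PGE2 and IL-1β levels in supernatant from cultured synoviocytes. Cells came from RA model rats treated with compound at 30 mg/kg.2d, and from NaCl-treated and normal control rats.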

[2] = tested on: IL-1β secreted by synoviocyte; assay: Content of IL-1β in culture supernatant of synoviocyte of RA model rats given test compound; assay type: in vivo; details: rat RA model, dose 30 mg/kg.2d; normal control 0.16 ± 0.034, NaCl 0.49 ± 0.136
Summary of the method: as §1

cancer stem cells = assay: Survival rate of cancer stem cells after test compound is added (flow cytometry, Annexin V-FITC/PI, clinical specimen); assay type: cell-based, patient; details: Homo sapiens, 18 h
Summary of the method: (§2)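 Survival was determined in clinical specimens after an 18 h compound treatment, using Annexin V-FITC/PI apoptosis staining and flow cytometry.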

cancer cells = assay: Survival rate of cancer cells after test compound is added (flow cytometry, Annexin V-FITC/PI, clinical specimen); assay type: cell-based, patient; details: Homo sapiens, 18 h, read-out: Survival rate (%) All cells (Stem cells and ordinary cells)
Summary of the method: as §2

normal cells = assay: Survival rate of normal cells after test compound is added (flow cytometry, Annexin V-FITC/PI); assay type: cell-based; details: 18 h
Summary of the method: as §2

[3] = Head and neck squamous cell carcinomas
[4] = read-out: Survival rate (%) All cells (Stem cells and ordinary cells)
[5] = read-out: Survival rate (%) Stem cells

C=C1C(=O)O[C@H]2[C@H]1CC[C@@](C)(OC)C1CC[C@@](C)(O)[C@@H]12 (stereo partly drawn) [Compound 47]
95%: viability at 10 µM (normal cells; [4])
91%: viability at 10 µM (cancer cells; Breast cancer) | viability at 10 µM (cancer cells; CLL) | viability at 10 µM (cancer cells; Colon adenocarcinoma) | viability at 10 µM (cancer cells; Liver cancer) | viability at 10 µM (cancer cells; Ovarian cancer) | viability at 10 µM (cancer cells; Pancreatic cancer) | viability at 10 µM (cancer cells; Skin cancer)
0.64 ± 0.062 ng/mL: Content of TNF-α in culture supernatant of synoviocyte (x ± s) [1]
72%: viability at 20 µM (cancer stem cells; Colorectal cancer)
87%: viability at 10 µM (cancer stem cells; Glioma) | viability at 10 µM (cancer cells; Brain tumor) | viability at 20 µM (cancer cells; Breast cancer) | viability at 20 µM (cancer cells; CLL) | viability at 20 µM (cancer cells; Glioma) | viability at 20 µM (cancer cells; Liver cancer) | viability at 10 µM (cancer cells; Retinoblastoma)
88%: viability at 10 µM (cancer stem cells; Colon adenocarcinoma) | viability at 10 µM (cancer cells; AML) | viability at 10 µM (cancer cells; Children hepatoblastoma) | viability at 10 µM (cancer cells; Colorectal cancer) | viability at 10 µM (cancer cells; Gastric cancer) | viability at 10 µM (cancer cells; Nasopharynx cancer) | viability at 20 µM (cancer cells; Ovarian cancer) | viability at 20 µM (cancer cells; Pancreatic cancer) | viability at 20 µM (cancer cells; Skin cancer)
84%: viability at 10 µM (cancer stem cells; Ovarian cancer) | viability at 10 µM (cancer stem cells; Pancreatic cancer) | viability at 10 µM (cancer stem cells; Skin cancer)
93%: viability at 10 µM (cancer cells; Brain glioma) | viability at 10 µM (cancer cells; [3]) | viability at 10 µM (cancer cells; Laryngeal cancer) | viability at 10 µM (cancer cells; Lung cancer) | viability at 10 µM (normal cells; [5])
92%: viability at 10 µM (cancer cells; CML) | viability at 20 µM (cancer cells; [3]) | viability at 10 µM (cancer cells; Lung adenocarcinoma) | viability at 10 µM (cancer cells; Prostate cancer) | viability at 20 µM (normal cells; [5])
77%: viability at 20 µM (cancer stem cells; CML) | viability at 20 µM (cancer stem cells; Lung adenocarcinoma) | viability at 20 µM (cancer stem cells; Prostate cancer)
79%: viability at 10 µM (cancer stem cells; AML) | viability at 20 µM (cancer stem cells; Brain glioma) | viability at 20 µM (cancer stem cells; Children hepatoblastoma) | viability at 10 µM (cancer stem cells; Colorectal cancer) | viability at 20 µM (cancer stem cells; Laryngeal cancer) | viability at 20 µM (cancer stem cells; Lung cancer)
78%: viability at 10 µM (cancer stem cells; Gastrointestinal tumor) | viability at 20 µM (cancer stem cells; [3]) | viability at 20 µM (cancer stem cells; Ovarian cancer) | viability at 20 µM (cancer stem cells; Pancreatic cancer) | viability at 20 µM (cancer stem cells; Skin cancer)
85%: viability at 10 µM (cancer stem cells; Brain glioma) | viability at 10 µM (cancer stem cells; CML) | viability at 10 µM (cancer stem cells; Children hepatoblastoma) | viability at 10 µM (cancer stem cells; Laryngeal cancer) | viability at 10 µM (cancer stem cells; Lung adenocarcinoma) | viability at 10 µM (cancer stem cells; Lung cancer) | viability at 10 µM (cancer stem cells; Prostate cancer) | viability at 20 µM (cancer cells; Children hepatoblastoma) | viability at 20 µM (cancer cells; Nasopharynx cancer)
86%: viability at 10 µM (cancer stem cells; [3]) | viability at 20 µM (cancer cells; Brain glioma) | viability at 20 µM (cancer cells; Laryngeal cancer) | viability at 20 µM (cancer cells; Lung cancer) | viability at 20 µM (cancer cells; Malignant melanoma)
89%: viability at 20 µM (cancer cells; CML) | viability at 20 µM (cancer cells; Colon adenocarcinoma) | viability at 20 µM (cancer cells; Gastric cancer) | viability at 10 µM (cancer cells; Gastrointestinal tumor) | viability at 20 µM (cancer cells; Lung adenocarcinoma) | viability at 10 µM (cancer cells; Malignant melanoma) | viability at 20 µM (cancer cells; Prostate cancer)
94%: viability at 10 µM (cancer cells; Glioma) | viability at 20 µM (normal cells; [4])
73%: viability at 20 µM (cancer stem cells; AML) | viability at 20 µM (cancer stem cells; Breast cancer) | viability at 20 µM (cancer stem cells; CLL) | viability at 20 µM (cancer stem cells; Liver cancer)
0.34 ± 0.058 ng/mL: Content of IL-1β in culture supernatant of synoviocyte (x ± s) [2]
82%: viability at 10 µM (cancer stem cells; Breast cancer) | viability at 10 µM (cancer stem cells; CLL) | viability at 10 µM (cancer stem cells; Gastric cancer) | viability at 10 µM (cancer stem cells; Liver cancer) | viability at 10 µM (cancer stem cells; Malignant melanoma) | viability at 10 µM (cancer stem cells; Nasopharynx cancer) | viability at 20 µM (cancer cells; AML)
76%: viability at 20 µM (cancer stem cells; Gastric cancer) | viability at 20 µM (cancer stem cells; Glioma) | viability at 20 µM (cancer stem cells; Malignant melanoma)
81%: viability at 10 µM (cancer stem cells; Brain tumor) | viability at 20 µM (cancer stem cells; Colon adenocarcinoma) | viability at 10 µM (cancer stem cells; Retinoblastoma) | viability at 20 µM (cancer cells; Colorectal cancer) | viability at 20 µM (cancer cells; Gastrointestinal tumor)
74%: viability at 20 µM (cancer stem cells; Gastrointestinal tumor) | viability at 20 µM (cancer stem cells; Nasopharynx cancer)
75%: viability at 20 µM (cancer stem cells; Brain tumor) | viability at 20 µM (cancer stem cells; Retinoblastoma)
83%: viability at 20 µM (cancer cells; Brain tumor) | viability at 20 µM (cancer cells; Retinoblastoma)
